Measurements from patent publication US12678453B2, “Aerosolized formulations of HIV protease inhibitors for the treatment of airway reflux” (The Medical College of Wisconsin, Inc., priority 2020, dated 2026).
Entries after “also recorded” stand apart in the source; their conditions may differ.

What was measured:
[1] = molecular target: T1, porcine pepsin (Sus scrofa, UniProt P00791); experiment: competitive binding assay (fluorescence polarization, pepstatin-Alexa647 probe); settings: 100 nM pepstatin-Alexa647, 0.03U/ul pepsin, 37.5% DMSO; FIG. 3A
T1 construct: purchased Worthington (Lakewood, NJ)
From the text: (§1) Fluorescent polarization assays were developed to test compound binding and inhibition of pepsin (FIG. 1). A competitive binding assay was developed using pepstatin, a known inhibitor of pepsin with subnanomolar affinity^91 (Roberts 2003). This binding assay measures the relative binding affinity but not the enzymatic inhibition of compounds. Thus, a separate peptic activity assay was developed, which uses fluorescently labelled alpha casein as substrate. Both assays are based on the principle of fluorescence polarization (FP), which holds that as the molecular size of a fluorescent species is altered through dissociation/breakdown or association/binding events, the degree of depolarization of plane polarized light changes accordingly, directly affecting the FP value.^92 (Lea 2011). In the assays used herein, millipolarization (mP) decreases as casein-Alexa647 is degraded by pepsin and increases with binding of pepsin to pepstatin-Alexa647.
(§2) Assays were performed in 20 ul volumes in 384-well black optical plates (Nunc, Roskilde, DK). Pepstatin dose response curves were used to optimize pepsin/inhibitor concentrations and assay incubation times. Dose response was performed using 0.3-1000 uM unlabeled pepstatin with 100-500 nM pepstatin-Alexa647 probe, 0.003-3U/μl porcine pepsin (Worthington, Lakewood, NJ), and 10-37% dimethyl sulfoxide (HIV protease inhibitor diluent) in 0.1M HCl, pH1+0.01% Tween-20. Reagents were combined (with pepsin added last) in 50% of the final reaction volume for mixing and immediately read on a BioTek Cytation (BioTek Instruments, Winooski, VT) with far-red FP filter cube at excitation/emission of […] for five minutes, in at least triplicate. Averaged polarization values of replicate reads were plotted against probe or labeled pepstatin concentrations in GraphPad Prism 8 (La Jolla, CA). Reagent concentrations yielding greatest dynamic range were selected for the assay. The peptic activity assay was optimized similarly using casein-Alexa647 probe in 0.1M HCl, pH1+0.01% Tween-20. Reagents were combined (adding pepsin last) and read immediately at minimal intervals (<2 minutes apart) over 30 minutes. The assay was performed in triplicate and mean polarization value was plotted over time.
HIV protease inhibitors were dissolved in DMSO. Amprenavir, ritonavir, lopinavir, saquinavir mesylate, nelfinavir mesylate hydrate, darunavir ethanolate, indinavir sulfate salt hydrate were obtained from Sigma-Aldrich. […] Half-maximal inhibitory concentration (IC50) were calculated from kinetic traces analyzed using an online tool (icekat.herokuapp.com/icekat, O1p 2019^95). Percent bound and percent activity were calculated by normalization to the measured polarization value without HIV protease inhibitor compound. […]

[2] = molecular target: T1, porcine pepsin; experiment: peptic activity assay (fluorescence polarization, casein-Alexa647 substrate); assay type: biochemical; settings: for inhibition of pepsin activity: 200 nM casein-Alexa647, 0.01 U/μL pepsin, 5% DMSO, FIG. 3B; for IC50 for pepsin: bind to and inhibit pepsin, numbers only in FIG. 3
From the text: as §1
Casein was labeled as described by Jolley (1996)^93 using a 2.5 ug/mg label to protein ratio. Specifically, 200 ul 10 mg/ml bovine alpha casein (C6780 Sigma Aldrich, St. Louis, MO) in 0.1M sodium bicarbonate was incubated with 5 ul 1 mg/ml Alexa Fluor 647 Carboxylic Acid, Succinimidyl Ester (in DMSO; A-20106 ThermoFisher Scientific, Waltham, MA) for 15 minutes at room temperature. The mixture was applied to a Sephadex G-25 column (90×5 mm) in a glass Pasteur pipette. Elution was performing using D-PBS pH7.4 (ThermoFisher Scientific) containing 0.1% sodium azide. The fast-moving band containing casein-bound fluorophore was collected in a volume of approximately 0.4 ml. Concentration of resultant probe (casein-Alexa647 in PBS-azide) was estimated via spectrophotometry using Beer's law (Implen Nanophotometer, Implen, Inc. Westlake Village, CA). Probe was aliquoted and stored at −20° C. until use.
as §2
HIV protease inhibitors were dissolved in DMSO. […] Compounds were tested under optimized assay conditions over a range of three logs concentration in triplicate and plotted using GraphPad Prism 8. Half-maximal inhibitory concentration (IC50) were calculated from kinetic traces analyzed using an online tool (icekat.herokuapp.com/icekat, O1p 2019^95). Percent bound and percent activity were calculated by normalization to the measured polarization value without HIV protease inhibitor compound.
Our team developed and optimized two high-throughput screening (HTS) assays to identify compounds that are specific and sensitive inhibitors of pepsin (FIG. 1). The first assay is a binding assay that measures the ability of a compound to compete with fluorescently labeled pepstatin for its binding site on pepsin.

[3] = known clinical profile; cited from earlier work

T1 sequence (P00791 60-385): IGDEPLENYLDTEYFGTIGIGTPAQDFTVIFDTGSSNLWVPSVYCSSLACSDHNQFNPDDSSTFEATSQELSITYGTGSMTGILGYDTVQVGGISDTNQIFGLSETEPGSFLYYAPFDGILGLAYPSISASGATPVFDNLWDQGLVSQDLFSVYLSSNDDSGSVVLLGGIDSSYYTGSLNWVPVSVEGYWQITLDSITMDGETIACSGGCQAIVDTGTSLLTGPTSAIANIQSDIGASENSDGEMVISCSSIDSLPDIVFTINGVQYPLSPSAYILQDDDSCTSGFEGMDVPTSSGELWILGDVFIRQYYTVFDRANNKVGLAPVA

SMILES | competitive binding to pepsin [1] | inhibition of pepsin activity [2] | IC50 for pepsin [2] | side effects / tolerability [3]
CC(C)CN(C[C@@H](O)[C@H](Cc1ccccc1)NC(=O)O[C@H]1CCOC1)S(=O)(=O)c1ccc(N)cc1 [amprenavir, [(3S)-oxolan-3-yl] N-[(2S,3R)-4-[(4-aminophenyl)sulfonyl-(2-methylpropyl)amino]-3-hydroxy-1-phenylbutan-2-yl]carbamate] | competitive binding to pepsin | inhibition of pepsin activity | low micromolar range | minimal side effects such as diarrhea, nausea and vomiting
CC(C)CN(C[C@@H](O)[C@H](Cc1ccccc1)NC(=O)O[C@H]1CO[C@H]2OCC[C@H]21)S(=O)(=O)c1ccc(N)cc1 [darunavir, [(3a S,4R,6aR)-2,3,3a,4,5,6a-hexahydrofuro[2,3-b]furan-4-yl] N-[(2S,3R)-4-[(4-aminophenyl)sulfonyl-(2-methylpropyl)amino]-3-hydroxy-1-phenylbutan-2-yl]carbamate] | competitive binding to pepsin | inhibition of pepsin activity | low micromolar range; also recorded: lowest IC50 | –
CC(C)c1nc(CN(C)C(=O)N[C@H](C(=O)N[C@@H](Cc2ccccc2)C[C@H](O)[C@H](Cc2ccccc2)NC(=O)OCc2cncs2)C(C)C)cs1 [ritonavir, 1,3-thiazol-5-ylmethyl N-[(2S,3 S,5S)-3-hydroxy-5-[[(2S)-3-methyl-2-[[methyl-[(2-propan-2-yl-1,3-thiazol-4-yl)methyl]carbamoyl]amino]butanoyl]amino]-1,6-diphenylhexan-2-yl]carbamate] | competitive binding to pepsin | inhibition of pepsin activity | – | minimal side effects such as diarrhea, nausea and vomiting
CC(C)(C)NC(=O)[C@@H]1C[C@@H]2CCCC[C@@H]2CN1C[C@@H](O)[C@H](Cc1ccccc1)NC(=O)[C@H](CC(N)=O)NC(=O)c1ccc2ccccc2n1 [saquinavir, (2S)—N-[(2S,3R)-4-[(3 S,4aS,8aS)-3-(tert-butylcarbamoyl)-3,4,4a,5,6,7,8,8a-octahydro-1H-isoquinolin-2-yl]-3-hydroxy-1-phenylbutan-2-yl]-2-(quinoline-2-carbonylamino)butanediamide] | competitive binding to pepsin | inhibition of pepsin activity | low micromolar range | can cause QT prolongation, heart block, high blood lipids, and liver problems
